In patent publication US20120135451A1, “Method and Apparatus for Evaluation of Toxicity” (BIOPHOS SA, priority 2009, published 2012):
pIC50: −log10 of the molar value. Read-outs that look alike come from different tables or passages of the source.

System: boar spermatozoa
Experiment: Toxicity evaluation by motility of boar spermatozoa (Qualisperm)
Type: cell-based
Settings: 30 minutes incubation, around 60 million/ml boar spermatozoa
Procedure: Quadruple samples of each test compound were prepared in varying concentrations by serial dilution in a 96 microwell-plate by serial dilution into XCell with DMSO. Equal volumes (50 μl) of boar spermatozoa in a concentration of around 60 million/ml were added to all sample solutions. Subsequently, the microwell plate was shaken and incubated for 30 minutes. The dosing was performed by using an automated TECAN® robot. After the incubation the sample solutions were pipetted on a Leja® slide and the motility of the spermatozoa was analysed using a Qualisperm® apparatus from Biophos AG. A dose response curve was obtained where % motile spermatozoa (all the moving spermatozoa), % progressive spermatozoa (share of spermatozoa above a pre-determined threshold, here: above 25 μm/sec), or mean speed of total motile spermatozoa was plotted as a function of the logarithmic concentration of the test compound expressed in mM. From the dose curve IC50 values were calculated.

## CC(C)C(=O)Nc1ccc([N+](=O)[O-])c(C(F)(F)F)c1 [Flutamide]
0.5 h, % motile spermatozoa (all moving spermatozoa), read-out: IC50 % motille
  pIC50: 4.02
0.5 h, % progressive spermatozoa (above 25 μm/sec), read-out: IC50 % progressiv
  pIC50: 4.21
0.5 h, mean speed of total motile spermatozoa, read-out: IC50 mean speed
  pIC50: 4.14

## CC(=O)N1CCN(c2ccc(OCC3COC(Cn4ccnc4)(c4ccc(Cl)cc4Cl)O3)cc2)CC1 (stereo not drawn) [Ketokonazole, Ketoconazole]
% motile spermatozoa (all moving spermatozoa), read-out: IC50 % motille
  pIC50: 3.68
% progressive spermatozoa (above 25 μm/sec), read-out: IC50 % progressiv
  pIC50: 3.69
Mean speed of total motile spermatozoa, read-out: IC50 mean speed
  pIC50: 3.71
